# Reference: PubChem BioAssay (NCI)
#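 Results reflect a 48-hour exposure of cells in 96-well plates to compound at five concentrations. Abbreviation: GI50, concentration required for 50% inhibition of growth. The concentration for full growth arrest is given as TGI.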
# How the values were obtained:
# Assay in all cases: DTP human tumour cell line panel, 48 h
# HL-60(TB) leukemia = system: HL-60(TB) leukemia
# SK-MEL-28 melanoma = system: SK-MEL-28 melanoma
# SN12C renal = system: SN12C renal
# A549 NSCLC = system: A549 NSCLC
# HS 578T breast = system: HS 578T breast
# OVCAR-5 ovarian = system: OVCAR-5 ovarian
# BT-549 breast = system: BT-549 breast
# A498 renal = system: A498 renal
# ACHN renal = system: ACHN renal
# UACC-62 melanoma = system: UACC-62 melanoma
# EKVX NSCLC = system: EKVX NSCLC
# DU-145 prostate = system: DU-145 prostate
# HCT-116 colon = system: HCT-116 colon
# UACC-257 melanoma = system: UACC-257 melanoma
# SR leukemia = system: SR leukemia
# SF-295 CNS = system: SF-295 CNS
# SNB-75 CNS = system: SNB-75 CNS
# K-562 leukemia = system: K-562 leukemia
# HCC-2998 colon = system: HCC-2998 colon
# U251 CNS = system: U251 CNS
# RPMI-8226 leukemia = system: RPMI-8226 leukemia
# COLO 205 colon = system: COLO 205 colon
# HOP-92 NSCLC = system: HOP-92 NSCLC
# TK-10 renal = system: TK-10 renal
# IGROV1 ovarian = system: IGROV1 ovarian
# 786-0 renal = system: 786-0 renal
# HCT-15 colon = system: HCT-15 colon
# SK-MEL-5 melanoma = system: SK-MEL-5 melanoma
# NCI-H522 lung = system: NCI-H522 lung
structure (smiles),measurement,setting,value
N#Cc1cnc2ccc(-c3cnc4n[nH]nc4c3)cc2c1N1CCc2cc(F)c(Cl)cc21,GI50,HL-60(TB) leukemia,11.5 µM
same,TGI,HL-60(TB) leukemia,43.6 µM
same,GI50,SK-MEL-28 melanoma,3.68 µM
same,TGI,SK-MEL-28 melanoma,33.6 µM
same,GI50,SN12C renal,3.27 µM
same,TGI,SN12C renal,41.7 µM
same,GI50,A549 NSCLC,3.92 µM
same,TGI,A549 NSCLC,72.6 µM
same,GI50,HS 578T breast,1180 nM
same,TGI,HS 578T breast,5.26 µM
same,GI50,OVCAR-5 ovarian,4.07 µM
same,TGI,OVCAR-5 ovarian,65.1 µM
same,GI50,BT-549 breast,2310 nM
same,TGI,BT-549 breast,14.6 µM
same,GI50,A498 renal,1870 nM
same,TGI,A498 renal,6.69 µM
same,GI50,ACHN renal,3.62 µM
same,TGI,ACHN renal,15.3 µM
same,GI50,UACC-62 melanoma,2630 nM
same,TGI,UACC-62 melanoma,12.6 µM
same,GI50,EKVX NSCLC,3.26 µM
same,TGI,EKVX NSCLC,18.5 µM
same,GI50,DU-145 prostate,4.25 µM
same,TGI,DU-145 prostate,66 µM
same,GI50,HCT-116 colon,6.44 µM
same,TGI,HCT-116 colon,25.3 µM
same,GI50,UACC-257 melanoma,5.03 µM
same,TGI,UACC-257 melanoma,44.2 µM
same,GI50,SR leukemia,2300 nM
same,TGI,SR leukemia,25.8 µM
same,GI50,SF-295 CNS,2540 nM
same,TGI,SF-295 CNS,13.3 µM
same,GI50,SNB-75 CNS,395 nM
same,TGI,SNB-75 CNS,5.52 µM
same,GI50,K-562 leukemia,4.67 µM
same,TGI,K-562 leukemia,> 100 µM
same,GI50,HCC-2998 colon,2850 nM
same,TGI,HCC-2998 colon,14.9 µM
same,GI50,U251 CNS,4.66 µM
same,TGI,U251 CNS,86.6 µM
same,GI50,RPMI-8226 leukemia,3.02 µM
same,TGI,RPMI-8226 leukemia,42.5 µM
same,GI50,COLO 205 colon,9.19 µM
same,TGI,COLO 205 colon,34.3 µM
same,GI50,HOP-92 NSCLC,1830 nM
same,TGI,HOP-92 NSCLC,7.97 µM
same,GI50,TK-10 renal,3.23 µM
same,TGI,TK-10 renal,28.6 µM
same,GI50,IGROV1 ovarian,1420 nM
same,TGI,IGROV1 ovarian,6.19 µM
same,GI50,786-0 renal,3.55 µM
same,TGI,786-0 renal,> 100 µM
same,GI50,HCT-15 colon,2710 nM
same,TGI,HCT-15 colon,14 µM
same,GI50,SK-MEL-5 melanoma,2830 nM
same,TGI,SK-MEL-5 melanoma,8.47 µM
same,GI50,NCI-H522 lung,2820 nM
